Experimental data taken from US20220107328A1, “METHODS OF TREATING LIVER DISEASES” (Camp4 Therapeutics Corporation, priority 2018, published 2022).

Columns and labels:
[1] = system: COL1A1 mRNA; assay: qRT-PCR of COL1A1 mRNA in human primary hepatic stellate cells; type: cell-based; details: for Primary Stellate cells COL1A1 (fold change in mRNA expression): 3 μM, relative to GAPDH; for Relative COL1A1 mRNA levels RQ: hepatic stellate cells
Method: Cells were plated at a density of 17000 cells/well in a 96-well plate and allowed to adhere overnight. The following day cell culture media was replenished with the indicated concentration(s) of compound for 18 hours. […] Medium was removed after 18 hours and cells were processed for further analysis, e.g. qRT-PCR.
Analysis of the fold changes in expression as measured by qRT-PCR were performed using the technique below. The control was DMSO, and the treatment was the selected compound (CPD). The internal control was GAPDH or B-Actin (or otherwise indicated), and the gene of interest is the target. First, the averages of the 4 conditions were calculated for normalization: DMSO:GAPDH, DMSO:Target, CPD: GAPDH, and CPD:Target. Next, the ΔCT of both control and treatment were calculated to normalize to internal control (GAPDH) using (DMSO:Target)−(DMSO:GAPDH)=ΔCT control and (CPD:Target)−(CPD: GAPDH)=ΔCT experimental. Then, the ΔΔCT was calculated by ΔCT experimental−ΔCT control.
Candidate compounds were tested in stellate cells for their ability to modulate PNPLA3 and COL1A1. Stellate cells were treated with serial dilutions of the compounds, ranging from 0.1 μM to 100 μM. Changes in PNPLA3 (or COL1A1) mRNA levels in stellate cells were analyzed with qRT-PCR.

[2] = system: PNPLA3 mRNA; assay: qRT-PCR of PNPLA3 mRNA in compound-treated primary human hepatocytes; details: for Relative PNPLA3 mRNA levels: mTOR pathway inhibitors, 10 μM, human hepatocytes, qRT-PCR, mean of three replicates ± standard deviation; for Primary Hepatocytes 4178 PNPLA3 (fold change in mRNA expression): donor 4178, 3 μM; for Primary Hepatocytes 4178 PNPLA3 (fold change in mRNA expression) / Primary Hepatocytes 4282 PNPLA3 (fold change in mRNA expression): relative to GUSB; for Primary Hepatocytes 4282 PNPLA3 (fold change in mRNA expression): donor 4282, 3 μM; for mrna remaining at 10 µM / mrna remaining at 1 µM: Homo sapiens, Hepatocyte
[3] = system: PNPLA3 mRNA; assay: qRT-PCR of PNPLA3 mRNA in compound-treated mouse hepatocytes; type: cell-based; details: for Relative PNPLA3 mRNA levels: mouse hepatocytes, 1 μM, normalized to ACTB
[4] = system: PCSK9 mRNA; assay: qRT-PCR of PCSK9 mRNA in primary hepatocytes; type: cell-based, human; details: donor 4178, 3 μM, relative to GUSB
[5] = system: PNPLA3 mRNA; assay: qRT-PCR of PNPLA3 mRNA in human primary hepatic stellate cells; type: cell-based; details: for Primary Stellate cells PNPLA3 (fold change in mRNA expression): 3 μM, relative to GAPDH; for Relative PNPLA3 mRNA levels RQ: hepatic stellate cells
[6] = system: PNPLA3 expression; assay: RNA-seq of compound-treated primary human hepatocytes; type: cell-based; details: PNPLA3 expression, RNA-seq
Method: Cryopreserved hepatocytes were cultured in plating media for 16 hours, transferred to maintenance media for 4 hours. Cultured on serum-free media for 2 hours, then a compound was added. The hepatocytes were maintained on the serum-free media for 16 hours prior to gene expression analysis.
Human hepatocytes cultured as described above were plated in 24-well format, adding 375,000 cells per well in a volume of 500 μl plating medium. Four hours before treatment, cells were washed with PBS and the medium was changed to either: fresh maintenance medium (complete) or modified maintenance medium.
Compound stocks were prepared at 1000× final concentration and added in a 2-step dilution to the medium to reduce risk of a compound precipitating out of solution when added to the cells, and to ensure reasonable pipetting volumes. One at a time, each compound was first diluted 10-fold in warm (about 37° C.) modified maintenance medium (initial dilution=ID), mixed by vortexing, and the ID was diluted 100-fold into the cell culture (e.g. 5.1 μl into 1 well of a 24-well plate containing 0.5 mL medium). The plate was mixed by carefully swirling and after all wells were treated and returned to the incubator overnight. If desired, separate plates/wells were treated with vehicle-only controls and/or positive controls. If using multi-well plates, controls were included on each plate. After about 18 hours, cells were harvested for further analysis, e.g., ChIP-seq, RNA-seq, ATAC-seq, etc.
The expression level of each gene was quantified with normalized FPKM (fragments per kilobase of exon per million mapped fragments). The differentially expressed genes were called using Cuffdiff v2.2.1 with q value<0.01 and log2 fold change>=1 or <=−1.
To identify small molecules that modulate PNPLA3, primary human hepatocytes were prepared as a monoculture, and at least one small molecule compound was applied to the cells.
RNA-seq was performed to determine the effects of the compounds on PNPLA3 expression in hepatocytes. Fold change was calculated by dividing the level of expression in the cell system that had been perturbed by the level of expression in an unperturbed system. Changes in expression having a p-value≤0.05 were considered significant.

| Primary Hepatocytes 4178 PCSK9 (fold change in mRNA expression) [4] | SMILES | Primary Stellate cells COL1A1 (fold change in mRNA expression) [1] | Relative COL1A1 mRNA levels RQ ([1]; 0.01 μM) | Relative COL1A1 mRNA levels RQ ([1]; 0.1 μM) | Relative COL1A1 mRNA levels RQ ([1]; 1 μM) | Relative COL1A1 mRNA levels RQ ([1]; 10 μM) | Relative PNPLA3 mRNA levels [2] | Relative PNPLA3 mRNA levels [3] | Primary Stellate cells PNPLA3 (fold change in mRNA expression) [5] | Relative PNPLA3 mRNA levels RQ ([5]; 0.01 μM) | Relative PNPLA3 mRNA levels RQ ([5]; 0.1 μM) | Relative PNPLA3 mRNA levels RQ ([5]; 1 μM) | Relative PNPLA3 mRNA levels RQ ([5]; 10 μM) | other results |
| --- | --- | --- | --- | --- | --- | --- | --- | --- | --- | --- | --- | --- | --- | --- |
| 0.68 | COc1ccc(-c2ccc3c(N4CCOC[C@@H]4C)nc(N4CCOC[C@@H]4C)nc3n2)cc1CO [AZD-8055] | 0.46 | 0.71 | 0.58 | 0.35 | 0.27 | 0.52 ± 0.16 | 0.21 ± 0.11 | 0.36 | 0.38 | 0.44 | 0.45 | 0.39 |  |
|  | COc1nc(N)nc2c1ncn2[C@@H]1O[C@H](COP(=O)(N[C@@H](C)C(=O)OCC(C)(C)C)Oc2cccc3ccccc23)[C@@H](O)[C@@]1(C)O (stereo partly drawn) [BMS-986094] |  |  |  |  |  |  |  |  |  |  |  |  | Fold change (Log 2) vs untreated [6]: −0.69 |
| 0.66 | CCNC(=O)Nc1ccc(-c2nc(N3CCOC[C@@H]3C)c3c(n2)C(C)(C)S(=O)(=O)C3)cc1 [CZ415] | 0.59 | 1.01 | 0.86 | 0.28 | 0.27 | 0.62 ± 0.07 | 0.20 ± 0.11 | 0.37 | 0.87 | 0.47 | 0.31 | 0.35 | Primary Hepatocytes 4178 PNPLA3 (fold change in mRNA expression) [2]: 0.60; Primary Hepatocytes 4282 PNPLA3 (fold change in mRNA expression) [2]: 0.70 |
| 0.66 | CO[C@H]1C[C@@H]2CC[C@@H](C)[C@@](O)(O2)C(=O)C(=O)N2CCCC[C@H]2C(=O)O[C@H]([C@H](C)C[C@@H]2CC[C@@H](OCCO)[C@H](OC)C2)CC(=O)[C@H](C)/C=C(\C)[C@@H](O)[C@@H](OC)C(=O)[C@H](C)C[C@H](C)/C=C/C=C/C=C/1C [Everolimus] | 0.93 | 1.07 | 1.01 | 1.12 | 1.19 | 0.98 ± 0.17 | 0.31 ± 0.10 | 0.36 | 0.64 | 0.47 | 0.56 | 0.44 | Primary Hepatocytes 4178 PNPLA3 (fold change in mRNA expression) [2]: 0.60; Primary Hepatocytes 4282 PNPLA3 (fold change in mRNA expression) [2]: 1.00 |
|  | Cc1cccc(-c2nn3c(c2-c2ccnc4ccc(C(N)=O)cc24)CCC3)n1 [LY2157299 Galunisertib] |  |  |  |  |  |  |  |  |  |  |  |  | mrna remaining at 10 µM ([2]; read-out: PNPLA3 mRNA remaining after treatment compared to untreated cells, H Hep Donor-1, 10 uM): 50%; mrna remaining at 10 µM ([2]; read-out: PNPLA3 mRNA remaining after treatment compared to untreated cells, H Hep Donor-2, 10 uM): 70%; mrna remaining at 10 µM ([2]; read-out: PNPLA3 mRNA remaining after treatment compared to untreated cells, H Hep Donor-3, 10 uM): 80%; mrna remaining at 1 µM ([2]; read-out: PNPLA3 mRNA remaining after treatment compared to untreated cells, H Hep Donor-4, 1 uM): 75%; mrna remaining at 10 µM ([2]; read-out: PNPLA3 mRNA remaining after treatment compared to untreated cells, H Hep Donor-4, 10 uM): 50%; mrna remaining at 1 µM ([2]; read-out: PNPLA3 mRNA remaining after treatment compared to untreated cells, H Hep Donor-5, 1 uM): 55%; mrna remaining at 10 µM ([2]; read-out: PNPLA3 mRNA remaining after treatment compared to untreated cells, H Hep Donor-5, 10 uM): 50%; mrna remaining at 10 µM ([3]; Hepatocyte, Mouse hepatocytes, 10 uM, read-out: PNPLA3 mRNA remaining after treatment compared to untreated cells): 102%; mrna remaining at 1 µM ([5]; Human Stellate, 1 uM, read-out: PNPLA3 mRNA remaining after treatment compared to untreated cells): 65%; mrna remaining at 10 µM ([5]; Human Stellate, 10 uM, read-out: PNPLA3 mRNA remaining after treatment compared to untreated cells): 100% |
|  | FC(F)(F)c1ccc(/C=C/c2nc(COc3ccc(CCCCn4ccnn4)cc3)co2)cc1 [Mubritinib (TAK 165)] |  |  |  |  |  |  |  |  |  |  |  |  | PNPLA3 mRNA remaining after treatment compared to untreated cells ([2]; H Hep Donor-2, 10 uM): 0.39; PNPLA3 mRNA remaining after treatment compared to untreated cells ([2]; H Hep Donor-3, 10 uM): 0.2; PNPLA3 mRNA remaining after treatment compared to untreated cells ([2]; H Hep Donor-4, 1 uM): 0.55; PNPLA3 mRNA remaining after treatment compared to untreated cells ([2]; H Hep Donor-4, 10 uM): 0.4; PNPLA3 mRNA remaining after treatment compared to untreated cells ([2]; H Hep Donor-5, 1 uM): 0.6; PNPLA3 mRNA remaining after treatment compared to untreated cells ([2]; H Hep Donor-5, 10 uM): 0.25; PNPLA3 mRNA remaining after treatment compared to untreated cells ([3]; Mouse hepatocytes, 1 uM): 1.12; PNPLA3 mRNA remaining after treatment compared to untreated cells ([3]; Mouse hepatocytes, 10 uM): 0.09; PNPLA3 mRNA remaining after treatment compared to untreated cells ([5]; Human Stellate, 1 uM): 0.2; PNPLA3 mRNA remaining after treatment compared to untreated cells ([5]; Human Stellate, 10 uM): 0.78 |
|  | COc1cccc2cc(-c3nc([C@H]4CC[C@H](C(=O)O)CC4)n4ncnc(N)c34)[nH]c12 [OSI-027/ASP7486] |  |  |  |  |  |  |  |  |  |  |  |  | PNPLA3 mRNA remaining after treatment compared to untreated cells ([2]; H Hep Donor-1, 1 uM (stated in cell)): 0.3 (1 uM); PNPLA3 mRNA remaining after treatment compared to untreated cells ([2]; H Hep Donor-2, 1 uM (stated in cell)): 0.4 (1 uM); PNPLA3 mRNA remaining after treatment compared to untreated cells ([2]; H Hep Donor-3, 10 uM): 0.55; PNPLA3 mRNA remaining after treatment compared to untreated cells ([2]; H Hep Donor-4, 1 uM): 0.6; PNPLA3 mRNA remaining after treatment compared to untreated cells ([2]; H Hep Donor-4, 10 uM): 0.38; PNPLA3 mRNA remaining after treatment compared to untreated cells ([2]; H Hep Donor-5, 1 uM): 0.5; PNPLA3 mRNA remaining after treatment compared to untreated cells ([2]; H Hep Donor-5, 10 uM): 0.2; PNPLA3 mRNA remaining after treatment compared to untreated cells ([3]; Mouse hepatocytes, 1 uM): 0.3; PNPLA3 mRNA remaining after treatment compared to untreated cells ([3]; Mouse hepatocytes, 10 uM): 0.35; PNPLA3 mRNA remaining after treatment compared to untreated cells ([5]; Human Stellate, 1 uM): 0.2; PNPLA3 mRNA remaining after treatment compared to untreated cells ([5]; Human Stellate, 10 uM): 0.65 |
